Measurements reported in ChEMBL document CHEMBL1165975, “Synthesis, molecular modeling and biological evaluation of dithiocarbamates as novel antitubulin agents” (Bioorg Med Chem, 2010).

Assays:
MCF7 [1] = assay: Cell cycle arrest in human MCF7 cells assessed as accumulation at G1 phase at 250 nM after 24 hrs by flow cytometry; type: functional
MCF7 [2] = assay: Cell cycle arrest in human MCF7 cells assessed as accumulation at G2/M phase at 250 nM after 24 hrs by flow cytometry; type: functional
MCF7 [3] = assay: Cell cycle arrest in human MCF7 cells assessed as accumulation at S phase at 250 nM after 24 hrs by flow cytometry; type: functional
MCF7 [4] = assay: Cell cycle arrest in human MCF7 cells assessed as accumulation at G1 phase at 25 nM after 24 hrs by flow cytometry; type: functional
[5] = Inhibition of bovine brain tubulin polymerization after 20 mins; parameters: species or system Bos taurus
MCF7 [6] = assay: Cell cycle arrest in human MCF7 cells assessed as accumulation at S phase at 25 nM after 24 hrs by flow cytometry; type: functional
MCF7 [7] = assay: Cytotoxicity against human MCF7 cells after 48 hrs by MTT assay; type: functional, cell-based; settings: MCF7, 48 h
MCF7 [8] = assay: Cell cycle arrest in human MCF7 cells assessed as accumulation at G2/M phase at 25 nM after 24 hrs by flow cytometry; type: functional

Row | IC50 [5] [µM] | Compound | IC50 (MCF7 [7]) [µM] | further results
1 | 6.8 | CCN(CC)C(=S)SC(CC(=O)c1ccc(Cl)cc1)c1ccccc1 (configuration not stated) | 0.04 | Activity (MCF7 [1]): 12.86%; Activity (MCF7 [2]): 39.54%; Activity (MCF7 [3]): 12.22%; Activity (MCF7 [4]): 50.86%; Activity (MCF7 [6]): 16.28%; Activity (MCF7 [8]): 19.99%
2 | 12 | CCN(CC)C(=S)SC(CC(=O)c1ccccc1)c1ccc(Br)cc1 (configuration not stated) | 0.08 | –
3 | 150 | CCN(CC)C(=S)SC(CC(=O)c1ccccc1)c1ccccc1OC (configuration not stated) | 16 | –
4 | 130 | CCN(CC)C(=S)SC(CC(=O)c1ccccc1)c1ccccc1 (configuration not stated) | 17 | –
5 | 220 | CCN(CC)C(=S)SC(CC(=O)c1ccccc1)c1ccc(C)cc1 (configuration not stated) | 20 | –
6 | 45 | CCN(CC)C(=S)SC(CC(=O)c1ccccc1)c1ccc(OC)cc1 (configuration not stated) | 4.6 | –
7 | 52 | CCN(CC)C(=S)SC(CC(=O)c1ccc(Br)cc1)c1ccc(OC)cc1 (configuration not stated) | 5 | –
8 | 84 | CCN(CC)C(=S)SC(CC(=O)c1ccc(OC)cc1)c1ccc(OC)cc1 (configuration not stated) | 0.8 | –
9 | 90 | CCN(CC)C(=S)SC(CC(=O)c1ccccc1)c1cccc([N+](=O)[O-])c1 (configuration not stated) | 9 | –
10 | 60 | CCN(CC)C(=S)SC(CC(=O)c1ccc(Cl)c(Cl)c1)c1ccccc1 (configuration not stated) | 4.5 | –
11 | 80 | CCN(CC)C(=S)SC(CC(=O)c1ccccc1)c1ccc(F)cc1 (configuration not stated) | 0.7 | –
12 | 15 | CCN(CC)C(=S)SC(CC(=O)c1ccccc1)c1ccc(Cl)cc1 (configuration not stated) | 0.12 | –
13 | 180 | CCN(CC)C(=S)SC(CC(=O)c1ccc(OC)cc1)c1ccc(C)cc1 (configuration not stated) | 17 | –
14 | 52 | CCN(CC)C(=S)SC(CC(=O)c1ccccc1)c1ccccc1Cl (configuration not stated) | 4.5 | –
15 | 250 | CCN(CC)C(=S)SC(CC(C)=O)c1ccccc1 (configuration not stated) | 23 | –
16 | 18 | CCN(CC)C(=S)SC(CC(=O)c1ccc(Br)cc1)c1ccc(F)cc1 (configuration not stated) | 1 | –
17 | 62 | CCN(CC)C(=S)SC(CC(=O)c1ccc(OC)cc1)c1ccccc1 (configuration not stated) | 4.5 | –
18 | 65 | CCN(CC)C(=S)SC(CC(=O)c1ccc(Br)cc1)c1ccccc1 (configuration not stated) | 5 | –
19 | 10 | CCN(CC)C(=S)SC(CC(=O)c1ccc(OC)cc1)c1ccccc1Cl (configuration not stated) | 0.07 | –
20 | 140 | CCN(CC)C(=S)SC(CC(=O)c1ccc(OC)cc1)c1ccc(Cl)cc1 (configuration not stated) | 16 | –

Row | Compound | IC50 [5] [µM] | IC50 (MCF7 [7]) [µM] | further results
21 | COc1ccc(/C=C\c2cc(OC)c(OC)c(OC)c2)cc1O [COMBRETASTATIN A4] | 2.2 | – | –
22 | COc1cc2c(c(OC)c1OC)-c1ccc(OC)c(=O)cc1[C@@H](NC(C)=O)CC2 [COLCHICINE] | 3.2 | 0.017 | Activity (MCF7 [4]): 24.31%; Activity (MCF7 [6]): 15.96%; Activity (MCF7 [8]): 32.28%
